# From patent US20220348590A1, “CYCLOOXYGENASE-2 INHIBITORS AND USES THEREOF” (The Board Institute, Inc., priority 2019, published 2022)
# Like-named read-outs stand apart in the source and are kept apart here.
# How the values were obtained:
# [1] = target: T1, human recombinant COX2 (hCOX2) (UniProt P35354); assay: LCMS-based COX2 enzymatic inhibition assay (PGE2 quantification); format: biochemical; set-up: COX2 2 minutes pge2/pge2d4 area ratio Avg; other: 2 minutes; readout pge2/pge2d4 area ratio; average; COX2 2 minutes pge2/pge2d4 area ratio Avg; LLE; average LLE; COX2 2 minutes pge2 area (counts) Avg; readout pge2 area (counts); other: 2 min; "ovine COX2 (oCOX2), human recombinant COX2 (hCOX2)"; settings: 2 minutes; for COX2 2 minutes pge2/pge2d4 area ratio Avg. LLE / COX2 2 minutes pge2 area (counts) Avg. LLE: average LLE; for IC50: average
# T1 sequence (P35354 1-604): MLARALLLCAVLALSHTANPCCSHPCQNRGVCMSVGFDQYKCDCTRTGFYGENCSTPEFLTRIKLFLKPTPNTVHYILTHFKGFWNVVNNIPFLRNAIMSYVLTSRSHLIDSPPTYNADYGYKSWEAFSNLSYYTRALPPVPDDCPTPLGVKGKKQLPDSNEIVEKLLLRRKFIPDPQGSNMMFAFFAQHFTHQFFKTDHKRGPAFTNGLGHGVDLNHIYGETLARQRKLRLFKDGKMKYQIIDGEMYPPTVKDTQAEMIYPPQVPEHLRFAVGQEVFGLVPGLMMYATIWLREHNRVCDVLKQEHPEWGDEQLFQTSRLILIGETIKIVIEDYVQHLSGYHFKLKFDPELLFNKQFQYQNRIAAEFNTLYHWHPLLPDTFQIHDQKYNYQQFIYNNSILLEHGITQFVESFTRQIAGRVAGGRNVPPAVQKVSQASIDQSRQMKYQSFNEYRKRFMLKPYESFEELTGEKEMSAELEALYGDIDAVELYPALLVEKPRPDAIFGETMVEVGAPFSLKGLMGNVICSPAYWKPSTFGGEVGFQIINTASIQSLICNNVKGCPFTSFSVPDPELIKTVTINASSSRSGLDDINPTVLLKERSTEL
# Procedure, shortened: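 Ovine COX-1 (0.1 μg) or human recombinant COX2 (0.2 μg) in 100 mM Tris.HCl pH 8.0 with hematin and epinephrine, preincubated with inhibitor 10 min at 37 °C. Reaction with 5 μM arachidonic acid stopped after 2 min with HCl; PGE2 quantified by LC-MS-MS. IC50 from 12 concentrations in triplicate.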
# ovine COX-1 (oCOX-1) = target: T2, ovine COX-1 (oCOX-1) (Ovis aries, UniProt P05979); assay: LCMS-based COX-1 enzymatic inhibition assay (PGE2 quantification); format: biochemical
# T2 construct: purchased Cayman Chemicals (Ann Arbor, Mich.)
# T2 sequence (P05979 25-600): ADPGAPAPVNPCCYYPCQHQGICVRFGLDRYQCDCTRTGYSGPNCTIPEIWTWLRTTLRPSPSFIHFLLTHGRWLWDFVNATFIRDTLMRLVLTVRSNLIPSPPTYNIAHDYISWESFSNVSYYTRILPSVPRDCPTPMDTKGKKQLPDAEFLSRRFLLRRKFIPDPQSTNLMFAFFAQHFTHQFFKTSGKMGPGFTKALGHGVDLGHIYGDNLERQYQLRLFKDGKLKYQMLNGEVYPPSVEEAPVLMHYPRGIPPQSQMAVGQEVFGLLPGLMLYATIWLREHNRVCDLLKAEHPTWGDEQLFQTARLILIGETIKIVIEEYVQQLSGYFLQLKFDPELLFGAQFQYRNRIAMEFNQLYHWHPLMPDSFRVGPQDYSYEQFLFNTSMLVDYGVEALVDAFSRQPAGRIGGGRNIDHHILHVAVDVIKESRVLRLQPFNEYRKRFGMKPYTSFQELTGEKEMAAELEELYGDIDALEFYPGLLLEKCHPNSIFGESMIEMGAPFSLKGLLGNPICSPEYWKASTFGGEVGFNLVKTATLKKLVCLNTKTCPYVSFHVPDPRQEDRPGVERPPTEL
# Experimental: We have adapted a previously reported cyclooxygenase enzymatic assay utilizing LCMS quantification of PGE2 as the product of COX-1 and COX2 catalyzed conversion of arachidonic acid to evaluate the binding properties of newly synthesized ligands [Cao, 2011]. These optimized and miniaturized (384-well plates) LCMS-based COX-1 and COX2 enzymatic assays enabled us to quickly evaluate newly synthesized ligands for COX2 binding affinity and selectivity vs COX-1. Using a shorter ligand-enzyme incubation time in the LCMS assay (2 minutes vs 10 minutes) also permitted us to prioritize ligands with faster binding kinetics. Considering the relatively slow on-rate kinetics of known coxibs, due to their 3-step binding mechanism [Marnett, 2009], we believe that optimizing this critical parameter will be key to the successful development of a COX2 PET tracer. Using these enzymatic assays, we have evaluated>200 newly synthesized ligands against COX2 and >20 ligands against COX-1. Another critical property necessary for a good PET radiotracer is to have low non-specific binding (NSB) to increase the free fraction and maximize the signal to noise ratio. This property can be evaluated using in-vitro protein binding assays, and we have now evaluated>50 newly synthesized ligands in mouse, rat and human plasma protein binding (PPB) assays as well as >15 ligands in a mouse brain protein binding (BPB) assay.
# Ovine COX-1 (oCOX-1), ovine COX2 (oCOX2), human recombinant COX2 (hCOX2), arachidonic acid, PGE2, d4-PGD2, and […] (labeled with deuterium atoms at positions 3 and 4) were purchased from Cayman Chemicals (Ann Arbor, Mich.). The cofactors (−)epinephrine and hematin, and the COX inhibitors indomethacin, resveratrol and diclofenac were purchased from Sigma-Aldrich (St. Louis, Mo.). Celecoxib was purchased from 3B PharmaChem International (Wuhan, China). All organic solvents were HPLC grade or better and were purchased from Thermo Fisher (Hanover Park, Ill.). Formic acid was purchased from EMD Chemicals (San Diego, Calif.). Purified water was prepared by using a Millipore Milli-Q purification system (Millipore, Billerica, Mass.). All other chemicals and solvents were ACS reagent grade, unless stated otherwise.
# In an Eppendorf tube, 146 μL of 100 mM Tris.HCl (pH 8.0) buffer, 2 μL of 100 μM hematin (co-factor) and 10 μL of 40 mM L-epinephrine (co-factor) were mixed at room temperature. Next, 20 μL of Tris.HCl (pH 8.0) buffer containing 0.2 μg COX2 or 0.1 μg COX-1 (approximately 1 unit of enzyme; 1 unit COX utilizes 1 nmol 02/mg/min at 37° C.) was added, and the solution was incubated at room temperature for 2 min. A 2 μL aliquot of the COX inhibitor in DMSO was added to the enzyme solution and preincubated at 37° C. for 10 min. Negative controls were identical except that 2 μL aliquots of DMSO without inhibitor were used instead.
# Each COX reaction was initiated by adding 20 μL of arachidonic acid in Tris.HCl (pH 8.0) buffer to give a final concentration of 5 μM; and the reaction was terminated after 2 min by adding 20 μL of 2.0 M HCl. The surrogate standards d4-PGE2 and d4-PGD2 (10 μL aliquot of 50 ng/mL solution in methanol) were added to correct for errors or degradation during sample handling and for variation in injection volume or instrument response during LC-MS-MS. After 30 min, PGE2, PGD2 and their surrogate standards were extracted from each incubation mixture using 800 μL hexane/ethyl acetate (50:50, v/v). The organic phase was removed, evaporated to dryness, and reconstituted in 100 μL methanol/water (50:50, v/v) for analysis using LC-MS-MS.
# The concentration of PGE2 in each sample was measured using LC-MS-MS, and the percent of COX inhibition by each test solution was determined by comparing the amount of PGE2 produced in the experiment with that produced in the negative control incubation. The formation of PGD2 was measured for quality control purposes, since the levels of PGD2 should be proportional to those of PGE2. […]
# [2] = readout pge2/pge2d4 area ratio, read-out: COX2 2 minutes pge2/pge2d4 area ratio Avg. IC50
# [3] = readout pge2 area (counts), read-out: COX2 2 minutes pge2 area (counts) Avg. IC50
# [4] = 10 minutes, readout pge2/pge2d4 area ratio, average LLE
# [5] = 10 minutes, readout pge2 area (counts), average LLE
# [6] = 10 minutes, pge2 area (counts), head of this section not shown, inferred
# [7] = 10 minutes, pge2 area (counts), head of this section not shown, inferred, read-out: COX1 10 minutes pge2 area (counts) Avg. IC50
# [8] = 10 minutes, readout pge2/pge2d4 area ratio, average, read-out: COX1 10 minutes pge2/pge2d4 area ratio Avg. IC50
# [9] = 10 minutes, readout pge2 area (counts), average, read-out: COX1 10 minutes pge2 area (counts) Avg. IC50
# [10] = 10 minutes, pge2/pge2d4 area ratio, head of this section not shown, inferred
SMILES,COX2 2 minutes pge2/pge2d4 area ratio Avg. LLE ([1]; readout pge2/pge2d4 area ratio),"IC50 [1, 2]",COX2 2 minutes pge2 area (counts) Avg. LLE ([1]; readout pge2 area (counts)),"IC50 [1, 3]",COX1 10 minutes pge2/pge2d4 area ratio Avg. LLE (ovine COX-1 (oCOX-1); [4]),COX1 10 minutes pge2 area (counts) Avg. LLE (ovine COX-1 (oCOX-1); [5]),COX1 10 minutes pge2 area (counts) Avg. LLE (ovine COX-1 (oCOX-1); [6]),IC50 (ovine COX-1 (oCOX-1); [7]),IC50 (ovine COX-1 (oCOX-1); [8]),IC50 (ovine COX-1 (oCOX-1); [9]),IC50 (ovine COX-1 (oCOX-1)),COX1 10 minutes pge2/pge2d4 area ratio Avg. LLE (ovine COX-1 (oCOX-1); [10])
CSc1ccc(NCc2cccs2)nc1-c1ccc(S(C)(=O)=O)cc1 [Compound 20],3.9449,10.8 nM,3.942,11.5 nM,0.214,0.214,,,,,52000 nM,
CSc1ccc(-c2cncc(OCc3cccs3)n2)cc1 [Compound 253],1.5751,3760 nM,1.45,4840 nM,,,0.8637,19300 nM,,,,
CS(=O)(=O)c1ccc(-n2ccc3ccc(NCc4ccoc4)nc32)cc1 [Compound 83],3.241,57.9 nM,3.278,53.5 nM,,,,,,,52000 nM,0.284
COc1ncc(NCc2cccs2)nc1-c1ccc(S(C)(=O)=O)nc1 [Compound 60],5.902,32.3 nM,5.891,33.4 nM,,,2.694,,,,52000 nM,2.694
CS(=O)(=O)c1ccc(-c2cnc3cnn(Cc4cccs4)c3n2)cc1 [Compound 94],4.786,71 nM,4.818,69.9 nM,,,2.532,10700 nM,10200 nM,,,2.552

# Further lines, with some results ahead:
COX2 2 minutes pge2/pge2d4 area ratio Avg. LLE ([1]; readout pge2/pge2d4 area ratio),"IC50 [1, 2]",COX2 2 minutes pge2 area (counts) Avg. LLE ([1]; readout pge2 area (counts)),"IC50 [1, 3]",COX1 10 minutes pge2/pge2d4 area ratio Avg. LLE (ovine COX-1 (oCOX-1); [4]),COX1 10 minutes pge2 area (counts) Avg. LLE (ovine COX-1 (oCOX-1); [5]),COX1 10 minutes pge2 area (counts) Avg. LLE (ovine COX-1 (oCOX-1); [6]),IC50 (ovine COX-1 (oCOX-1); [7]),IC50 (ovine COX-1 (oCOX-1); [8]),IC50 (ovine COX-1 (oCOX-1); [9]),SMILES,IC50 (ovine COX-1 (oCOX-1)),COX1 10 minutes pge2/pge2d4 area ratio Avg. LLE (ovine COX-1 (oCOX-1); [10])
,49.4 nM,,43.6 nM,,,,,33500 nM,,CS(=O)(=O)c1ccc(-c2cncc(SCc3ccco3)n2)cc1 [Compound 78],,
5.142,18.4 nM,5.088,20.6 nM,3.526,3.306,,,699 nM,1230 nM,Cc1ncc(-c2ccc(S(C)(=O)=O)cc2)nc1OCc1cccs1 [Compound 38],,
3.0886,38.9 nM,3.016,45.2 nM,,,0.343,21200 nM,19600 nM,,CS(=O)(=O)c1ccc(-c2cc3ccoc3c(NCc3cccs3)n2)cc1 [Compound 67],,0.3787
4.259,48.6 nM,4.246,53.8 nM,,,1.289,40900 nM,,,Cn1cccc1CNc1cccc(-c2ccc(S(C)(=O)=O)cc2)n1 [Compound 77],,
3.218,15.2 nM,3.116,18.5 nM,1.013,0.929,,,2220 nM,2710 nM,CS(=O)(=O)c1ccc(-c2ccc3ccn(Cc4cccs4)c3n2)cc1 [Compound 31],,
